Molecules are shown by their SMILES. pIC50: −log10 of the molar value. Where only a bound is given, the exact number is not on record here.

In one series the target is T1, alpha4-beta7 (Homo sapiens, UniProt P13612+P26010).
T1 construct: Sufficient RPMI 8866 cells were removed from stock for assay; endogenous in cells; host or cells: RPMI 8866 cells
T1 sequence (P13612 34-1032): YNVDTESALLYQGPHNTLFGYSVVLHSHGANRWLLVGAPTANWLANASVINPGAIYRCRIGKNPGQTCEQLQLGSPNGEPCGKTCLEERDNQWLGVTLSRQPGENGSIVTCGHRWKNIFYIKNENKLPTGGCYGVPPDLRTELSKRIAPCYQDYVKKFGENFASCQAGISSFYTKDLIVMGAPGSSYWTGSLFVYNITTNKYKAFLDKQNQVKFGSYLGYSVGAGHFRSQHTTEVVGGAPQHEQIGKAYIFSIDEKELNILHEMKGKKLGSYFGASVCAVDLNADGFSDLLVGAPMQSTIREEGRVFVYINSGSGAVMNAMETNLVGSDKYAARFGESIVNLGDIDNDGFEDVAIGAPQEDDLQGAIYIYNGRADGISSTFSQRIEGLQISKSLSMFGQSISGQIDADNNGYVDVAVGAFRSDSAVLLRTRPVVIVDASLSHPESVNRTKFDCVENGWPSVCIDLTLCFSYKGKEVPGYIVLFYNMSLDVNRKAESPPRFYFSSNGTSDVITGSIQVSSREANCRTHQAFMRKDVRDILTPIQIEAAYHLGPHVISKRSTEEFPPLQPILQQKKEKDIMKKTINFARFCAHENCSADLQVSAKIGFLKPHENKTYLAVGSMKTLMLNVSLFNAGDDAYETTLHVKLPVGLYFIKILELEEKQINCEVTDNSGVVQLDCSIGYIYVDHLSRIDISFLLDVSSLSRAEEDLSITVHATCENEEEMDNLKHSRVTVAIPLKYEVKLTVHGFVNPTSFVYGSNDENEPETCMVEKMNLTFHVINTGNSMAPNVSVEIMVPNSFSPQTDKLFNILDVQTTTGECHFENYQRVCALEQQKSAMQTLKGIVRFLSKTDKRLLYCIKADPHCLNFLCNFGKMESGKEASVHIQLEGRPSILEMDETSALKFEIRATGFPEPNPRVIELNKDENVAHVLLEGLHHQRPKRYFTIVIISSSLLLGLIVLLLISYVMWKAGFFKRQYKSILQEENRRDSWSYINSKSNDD
T1 sequence (P26010 20-798): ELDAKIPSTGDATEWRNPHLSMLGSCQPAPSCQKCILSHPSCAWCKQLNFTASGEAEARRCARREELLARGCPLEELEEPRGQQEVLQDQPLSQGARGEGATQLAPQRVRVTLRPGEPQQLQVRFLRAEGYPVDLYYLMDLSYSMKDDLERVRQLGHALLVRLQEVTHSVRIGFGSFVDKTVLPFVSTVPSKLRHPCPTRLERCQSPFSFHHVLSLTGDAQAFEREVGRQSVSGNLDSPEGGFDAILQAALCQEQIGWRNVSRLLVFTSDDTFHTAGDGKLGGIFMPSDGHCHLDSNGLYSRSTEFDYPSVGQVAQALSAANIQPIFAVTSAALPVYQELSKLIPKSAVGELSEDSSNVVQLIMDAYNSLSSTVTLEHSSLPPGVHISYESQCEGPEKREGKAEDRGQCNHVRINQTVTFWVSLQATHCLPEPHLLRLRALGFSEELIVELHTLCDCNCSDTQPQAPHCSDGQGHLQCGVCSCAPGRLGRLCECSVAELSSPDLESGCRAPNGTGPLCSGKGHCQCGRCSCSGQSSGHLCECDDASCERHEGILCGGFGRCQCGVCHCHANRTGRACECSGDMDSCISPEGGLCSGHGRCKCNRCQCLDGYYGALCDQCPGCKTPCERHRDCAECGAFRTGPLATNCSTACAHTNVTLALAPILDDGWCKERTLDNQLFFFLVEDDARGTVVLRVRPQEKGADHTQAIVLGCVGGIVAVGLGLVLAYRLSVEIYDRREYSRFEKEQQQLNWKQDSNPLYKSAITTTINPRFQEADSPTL
Nature of the series: Alpha4-Beta7 Assay (MadCAM/RPMI 8866 cell adhesion). It is filed as cell-based. The conditions noted are these: calcein labeled RPMI 8866 cells adhering to immobilized MadCAM. The method, then: Alpha4-Beta7 Assay Protocol
Two weeks to one day prior to the assay, Nunc high-binding F96 Maxisorp immuno plates, #442404 or #439454, were coated with 25 ng/well (0.25 μg/ml) MadCAM in a volume of 100 μl/well. The plates were covered with sealer and wrapped in saran wrap followed by incubation in the refrigerator for at least 24 hours. The coating buffer employed was: 10 mM carbonate/bicarbonate buffer made up from: 0.8 g/L sodium carbonate and 1.55 g/L sodium bicarbonate adjusted to pH 9.6 with 1 N HCl. Assay buffers consisted of the following:
Plates were washed 2× with wash buffer and then blocked at room temperature for at least 1 hour with Blocking Buffer. Sealed plates were sometimes blocked overnight in the refrigerator. Plates were then washed with PBS and hand blotted dry. Remaining liquid was aspirated from the wells.
Sufficient RPMI 8866 cells were removed from stock for assay (2×10^6 cells/ml×10 ml/plate×number of plates) and placed in a centrifuge tube. The tubes were filled to volume with PBS and were spun at 200×G for 8 minutes. The buffer was poured off and the cells were resuspended to 10×10^6/ml in PBS and a stock solution of calcein in DMSO (5mg/mL) was added at 51 μl/ml of cell suspension. The suspension was incubated for 30 minutes at 37° C. in dark. The cells were then washed with PBS. The PBS was poured off and the cells resuspended in cell buffer at a concentration of 2×10^6 cells/mL for plating in the assay.
Stock solution of test compounds at 25× first dilution desired in 100% DMSO were prepared. First dilutions for the standard, as well as test compounds, were 1:25 into straight Binding Buffer, while the remaining serial dilutions were into Dilution Buffer (Binding Buffer/4% DMSO). Stock concentrations and dilutions of compounds for screening were determined by anticipated activity.
For the assay, 129 μl Binding Buffer was plated into first row of wells and 100 μl Dilution Buffer was plated into remaining wells. A 5.44 μl aliquot of each compound was pipetted into appropriate, labeled wells, in triplicate. The compounds were next diluted down the plate (34 μl+100 μl=>4-fold dilution). For controls, 100 μl of Dilution Buffer 100 μl Cell Buffer were plated into the nonspecific background wells (no cells, no compound) and 100 μl Dilution Buffer+100 μl cells were plated into the total binding wells (no compound=100% binding). Labeled cells at 2×10^6 cells/ml, 100 μl/well (=2×10^5 cells/well) were added to each well containing compound. The plates were sealed and incubated in the dark for 45 minutes at room temperature. Following incubation, unbound cells were removed by adding 150 μl PBS/well. The plates were inverted, blotted onto paper towels and washed by gently adding 200 μl PBS to wells and blotting again. Remaining buffer was carefully aspirated from the wells. A final 100 μl PBS was added to each well.
The plates were then read for fluorescence intensity on a Cytofluor 2300 (Millipore) fluorecence measurement system (excitation=485 nm, emission=530 nm). IC50s of each compound were determined by linear regression analysis.

`Cc1cccc(Br)c1C(=O)N[C@@H](Cc1ccc(-c2c(C)n(C)c(=O)n(C)c2=O)cc1)C(=O)O` [Example 8, N-[(2-bromo-6-methylphenyl)carbonyl]-4-(1,3,6-trimethyl-2,4-dioxo-5-pyrimidinyl)-L-phenylalanine] came in with a melting point of 240 to 242 °C. Besides, the pIC50 at alpha4-beta7 was greater than 7.00.
In turn, `CCc1cccc(C)c1C(=O)N[C@@H](Cc1ccc(-c2c(C)n(C)c(=O)n(C)c2=O)cc1)C(=O)O` [Example 10, N-[(2-ethyl-6-methylphenyl)carbonyl]-4-(1,3,6-trimethyl-2,4-dioxo-5-pyrimidinyl)-L-phenylalanine] showed a melting point of 127 to 133 °C. In addition, the negative-log IC50 (pIC50) on alpha4-beta7 is greater than 5.00.
As for `Cc1c(-c2ccc(C[C@H](NC(=O)c3c(F)cccc3C(F)(F)F)C(=O)O)cc2)c(=O)n(C)c(=O)n1C` [Example 13, N-[(2-fluoro-6-(trifluoromethyl)phenyl)carbonyl]-4-(1,3,6-trimethyl-2,4-dioxo-5-pyrimidinyl)-L-phenylalanine], the melting point was 218 to 220 °C. Further, the pIC50 on alpha4-beta7 was greater than 5.00.
For `CCc1cccc(Cl)c1C(=O)N[C@@H](Cc1ccc(-c2c(C)n(C)c(=O)n(C)c2=O)cc1)C(=O)O` [Example 15, N-[(2-chloro-6-ethylphenyl)carbonyl]-4-(1,3,6-trimethyl-2,4-dioxo-5-pyrimidinyl)-L-phenylalanine] the same measures were 187 to 190 °C and greater than 5.00.
Taken in the same sequence, the figures for `CCCc1cccc(Cl)c1C(=O)N[C@@H](Cc1ccc(-c2c(C)n(C)c(=O)n(C)c2=O)cc1)C(=O)O` [Example 16, N-[(2-chloro-6-propylphenyl)carbonyl]-4-(1,3,6-trimethyl-2,4-dioxo-5-pyrimidinyl)-L-phenylalanine] were 225 to 227 °C and greater than 5.00.
Taken in the same sequence, the figures for `Cn1c(C(F)(F)F)c(-c2ccc(C[C@H](NC(=O)c3c(Cl)cccc3Cl)C(=O)O)cc2)c(=O)n(C)c1=O` [Example 21, N-[1-(2,6-dichlorophenyl)carbonyl]-4-(1,3-dimethyl-2,4-dioxo-6-(trifluoromethyl)-5-pyrimidinyl)-L-phenylalanine] were 125 to 128 °C and greater than 5.00.
Molecule `Cc1cccc(Cl)c1C(=O)N[C@@H](Cc1ccc(-c2c(C(F)(F)F)n(C)c(=O)n(C)c2=O)cc1)C(=O)O` [Example 22, N-[(2-chloro-6-methylphenyl)carbonyl]-4-[1,3-dimethyl-2,4-dioxo-6-(trifluoromethyl)-5-pyrimidinyl]-L-phenylalanine] gave a melting point of 243 to 247 °C. The pIC50 at alpha4-beta7 is greater than 5.00.
In the case of `Cn1c(C(F)(F)F)c(-c2ccc(C[C@H](NC(=O)c3c(F)cccc3C(F)(F)F)C(=O)O)cc2)c(=O)n(C)c1=O` [Example 23, N-[[2-fluoro-6-(trifluoromethyl)phenyl]carbonyl]-4-(1,3-dimethyl-2,4-dioxo-6-(trifluoromethyl)-5-pyrimidinyl)-L-phenylalanine], the melting point is 122 to 125 °C. Further, the negative-log IC50 (pIC50) on alpha4-beta7 is greater than 5.00.
For `Cc1cc(C[C@H](NC(=O)c2c(C)cccc2Cl)C(=O)O)ccc1-c1cn(C)c(=O)n(C)c1=O` [Example 24, N-[(2-chloro-6-methylphenyl)carbonyl]-4-(1,3-dimethyl-2,4-dioxo-5-pyrimidinyl)-3-methyl-L-phenylalanine] the same measures were 109 to 111 °C and greater than 5.00.

These data come from patent publication US6380387B1, “4-Pyrimidinyl-n-acyl-l phenylalanines” (Hoffmann-La Roche Inc., priority 1999, dated 2002).
